{
  "source": "patent US20100234238A1",
  "about": "“METHOD FOR PROFILING KINASE INHIBITORS” (Janssen Pharmaceutica N V, priority 2006, published 2010)",
  "tested_on": "tyrosine kinase activity in lysates prepared from cell lines",
  "test": "PAMCHIP96 tyrosine peptide array profiling of lysates of 27 cell lines in absence or presence of MTKI",
  "format": "biochemical",
  "conditions": "5 μM",
  "source_text": "PAMGENE technology using the tyrosine peptide PAMCHIP96 allows the kinetic detection of the phosphorylation of 144 tyrosine peptides spotted onto a 3-dimensional porous well of a 96-well plate (www.pamgene.com). This technology can be used to measure the activity of purified kinases and the effects of kinase inhibitors thereon. Phosphotyrosine peptides are detected using a mix of fluorescently labeled anti-phosphotyrosine antibodies. Phosphorylation of peptides can be followed in real time due to the possibility of removing the reaction mix for a few seconds during the assay by a pumping mechanism to allow CCD camera detection of phosphopeptides bound to the fluorescent antibody. These consecutive datapoints (quantified spot images) generate a kinetic curve for each individual peptide, and allow for the calculation of initial velocities and endpoints associated with each individual peptide.\nCells cultured in appropriate medium in T175 flasks, treated with compound if necessary, are harvested at 70-90% confluency.\nMedia is removed, cells are washed with 10 ml ice cold PBS containing 0.1 mM NaVO4 and lysed in 1 ml of M-PER buffer (PIERCE) containing phosphatase and protease inhibitors (HALT, PIERCE). Cells are collected by scraping, and centrifuged for 10 minutes at 12 000×g. Supernatant lysates are filtered through a 0.2 micrometer filter (Anotop 0.2 μm anopore filter; Whatmann). Lysates are flash frozen in liquid nitrogen and stored at −80C.\nJust prior to the PAMCHIP experiment, total protein content is quantitated in the lysates and lysates are diluted to 1 mg/ml in a total volume of 200 μl, with M-PER phosphatase and protease inhibitors (HALT, PIERCE). 10 μg of total lysate (corresponding to 10 μl) will be used per well on the PAMCHIP96.\nTo all 200 μl lysates 10 units of benzonase (Novagen) is added and lysates are further incubated for 30 min on ice and next centrifuged for 10 minutes at 12 000×g. The supernatant is then 1:1 diluted with compound or DMSO diluted to the appropriate concentration in water, and lysates are further incubated exactly 60 min on ice. Meanwhile, a PAMCHIP96 tyrosine peptide chip (PAMGENE) is blocked with 2% BSA (filtered through a 0.2 μm anopore filter; Whatmann) using the standard setting of a PAMSTATION96 (PAMGENE).\nThe composition of the kinase buffer is as follows: 1×ABL buffer (NEB), 0.5 mg/ml BSA (from 10 mg/ml NEB stock), 100 μM ATP (dissolved and diluted in 1×ABL buffer), 5 μg/ml PY20-FITC (ExAlpha Biologicals, azide-free preparation). A twofold concentrated kinase buffer is prepared chilled on ice, DMSO or compound is added as appropriate, and the solution is added 1:1 to the (compound treated) ice cold lysates, and immediately applied to a tyrosine peptide PAMCHIP96. The assay is run on a PAMSTATION96 according to standard procedures: after loading of the plate, solution is pumped once onto the wells, a first exposure is read (150 mSec) and then a kinetic reading program (reading every 5 min for 150 mSec) is run for 60 min. Lysates are run in 6 technical replicates for each condition; replicates are always applied horizontally next to each other to avoid vertical strip effects of the chip.\nThe data (spot images) are further quantified and linked to the peptide identities using EVOLVE PAMGRID software (PAMGENE). The quantified data are then fit to a curve using CurveFitHT software (PAMGENE) using the Vinip2 curve fitting algorithm, applied on the first 30 min of the assay; the initial velocity is derived at the first kinetic time point read. All subsequent data analyses were done on initial velocities (Vini) using the software packages Omniviz and R (Ihaka, R. and Gentlemen, R. (1996) R: a language for data analysis and graphics. J. Comput. Graph. Stat., 5, 299-314).\nAfter replacing the Vini's lower than 0.1 by 0.1, all Vini's were log 2-transformed to approach normality.",
  "data": [
    {"smiles": "COc1cc2ncnc3c2cc1OCCCCCN(C)Cc1ccc(Br)cc1N3", "note": "[MTKI, 4,6-ethanediylidenepyrimido[4,5-b][6,1,12]benzoxadiazacyclopentadecine, 17-bromo-8,9,10,11,12,13,14,19-octahydro-20-methoxy-13-methyl-]", "values": [
      {"measurement": "ratio of initial velocity of peptide phosphorylation", "setting": "H3255 lysate, PECA1_706_718_Y713", "value": 0.68},
      {"measurement": "ratio of initial velocity of peptide phosphorylation", "setting": "H3255 lysate, PGFRB_768_780_Y771/Y775/Y778", "value": 0.12},
      {"measurement": "ratio of initial velocity of peptide phosphorylation", "setting": "H3255 lysate, PLCG1_764_776_Y771", "value": 0.97},
      {"measurement": "ratio of initial velocity of peptide phosphorylation", "setting": "H3255 lysate, PRRX2_202_214_Y214", "value": 0.67},
      {"measurement": "ratio of initial velocity of peptide phosphorylation", "setting": "H3255 lysate, RASA1_453_465_Y460", "value": 0.65},
      {"measurement": "ratio of initial velocity of peptide phosphorylation", "setting": "H3255 lysate, STAT2_683_695_Y690", "value": 0.72},
      {"measurement": "ratio of initial velocity of peptide phosphorylation", "setting": "H3255 lysate, SYN1_2_14_S9", "value": 0.70},
      {"measurement": "ratio of initial velocity of peptide phosphorylation", "setting": "H3255 lysate, TYRO3_679_691_Y686", "value": 0.47},
      {"measurement": "ratio of initial velocity of peptide phosphorylation", "setting": "NCI-N87 lysate, CDK7_157_169_S164", "value": 0.82},
      {"measurement": "ratio of initial velocity of peptide phosphorylation", "setting": "NCI-N87 lysate, CREB1_122_134_Y134/S133", "value": 0.82},
      {"measurement": "ratio of initial velocity of peptide phosphorylation", "setting": "NCI-N87 lysate, DDR2_733_745_Y740", "value": 0.95},
      {"measurement": "ratio of initial velocity of peptide phosphorylation", "setting": "NCI-N87 lysate, ENOG_37_49_Y43", "value": 0.91},
      {"measurement": "ratio of initial velocity of peptide phosphorylation", "setting": "NCI-N87 lysate, MK10_216_228_T221/Y223", "value": 0.73},
      {"measurement": "ratio of initial velocity of peptide phosphorylation", "setting": "NCI-N87 lysate, NCF1_313_325_S315/S320", "value": 0.89},
      {"measurement": "ratio of initial velocity of peptide phosphorylation", "setting": "NCI-N87 lysate, NPT2_501_513_T508", "value": 0.88},
      {"measurement": "ratio of initial velocity of peptide phosphorylation", "setting": "NCI-N87 lysate, PECA1_706_718_Y713", "value": 0.82},
      {"measurement": "ratio of initial velocity of peptide phosphorylation", "setting": "NCI-N87 lysate, PGFRB_768_780_Y771/Y775/Y778", "value": 0.32},
      {"measurement": "ratio of initial velocity of peptide phosphorylation", "setting": "NCI-N87 lysate, PLCG1_764_776_Y771", "value": 0.78},
      {"measurement": "ratio of initial velocity of peptide phosphorylation", "setting": "NCI-N87 lysate, PRRX2_202_214_Y214", "value": 0.82},
      {"measurement": "ratio of initial velocity of peptide phosphorylation", "setting": "NCI-N87 lysate, RASA1_453_465_Y460", "value": 0.59},
      {"measurement": "ratio of initial velocity of peptide phosphorylation", "setting": "NCI-N87 lysate, STAT2_683_695_Y690", "value": 0.83},
      {"measurement": "ratio of initial velocity of peptide phosphorylation", "setting": "NCI-N87 lysate, SYN1_2_14_S9", "value": 0.75},
      {"measurement": "ratio of initial velocity of peptide phosphorylation", "setting": "NCI-N87 lysate, TYRO3_679_691_Y686", "value": 0.85},
      {"measurement": "ratio of initial velocity of peptide phosphorylation", "setting": "SKBR3 lysate, CDK7_157_169_S164", "value": 0.97},
      {"measurement": "ratio of initial velocity of peptide phosphorylation", "setting": "SKBR3 lysate, CREB1_122_134_Y134/S133", "value": 0.99},
      {"measurement": "ratio of initial velocity of peptide phosphorylation", "setting": "SKBR3 lysate, DDR2_733_745_Y740", "value": 0.93},
      {"measurement": "ratio of initial velocity of peptide phosphorylation", "setting": "SKBR3 lysate, MK10_216_228_T221/Y223", "value": 0.68},
      {"measurement": "ratio of initial velocity of peptide phosphorylation", "setting": "SKBR3 lysate, NCF1_313_325_S315/S320", "value": 0.94},
      {"measurement": "ratio of initial velocity of peptide phosphorylation", "setting": "SKBR3 lysate, NPT2_501_513_T508", "value": 0.77},
      {"measurement": "ratio of initial velocity of peptide phosphorylation", "setting": "SKBR3 lysate, PECA1_706_718_Y713", "value": 0.68},
      {"measurement": "ratio of initial velocity of peptide phosphorylation", "setting": "SKBR3 lysate, PLCG1_764_776_Y771", "value": 0.75},
      {"measurement": "ratio of initial velocity of peptide phosphorylation", "setting": "SKBR3 lysate, PRRX2_202_214_Y214", "value": 0.75},
      {"measurement": "ratio of initial velocity of peptide phosphorylation", "setting": "SKBR3 lysate, RASA1_453_465_Y460", "value": 0.88},
      {"measurement": "ratio of initial velocity of peptide phosphorylation", "setting": "SKBR3 lysate, STAT2_683_695_Y690", "value": 0.81},
      {"measurement": "ratio of initial velocity of peptide phosphorylation", "setting": "SKBR3 lysate, SYN1_2_14_S9", "value": 1.03},
      {"measurement": "ratio of initial velocity of peptide phosphorylation", "setting": "SKBR3 lysate, TYRO3_679_691_Y686", "value": 0.90},
      {"measurement": "ratio of initial velocity of peptide phosphorylation", "setting": "SNU484 lysate, CDK7_157_169_S164", "value": 0.67},
      {"measurement": "ratio of initial velocity of peptide phosphorylation", "setting": "SNU484 lysate, CREB1_122_134_Y134/S133", "value": 0.70},
      {"measurement": "ratio of initial velocity of peptide phosphorylation", "setting": "SNU484 lysate, DDR2_733_745_Y740", "value": 0.75},
      {"measurement": "ratio of initial velocity of peptide phosphorylation", "setting": "SNU484 lysate, ENOG_37_49_Y43", "value": 0.68},
      {"measurement": "ratio of initial velocity of peptide phosphorylation", "setting": "SNU484 lysate, MK10_216_228_T221/Y223", "value": 0.72},
      {"measurement": "ratio of initial velocity of peptide phosphorylation", "setting": "SNU484 lysate, NCF1_313_325_S315/S320", "value": 0.80},
      {"measurement": "ratio of initial velocity of peptide phosphorylation", "setting": "SNU484 lysate, NPT2_501_513_T508", "value": 0.85},
      {"measurement": "ratio of initial velocity of peptide phosphorylation", "setting": "SNU484 lysate, PECA1_706_718_Y713", "value": 0.64},
      {"measurement": "ratio of initial velocity of peptide phosphorylation", "setting": "SNU484 lysate, PLCG1_764_776_Y771", "value": 0.70},
      {"measurement": "ratio of initial velocity of peptide phosphorylation", "setting": "SNU484 lysate, PRRX2_202_214_Y214", "value": 0.67},
      {"measurement": "ratio of initial velocity of peptide phosphorylation", "setting": "SNU484 lysate, RASA1_453_465_Y460", "value": 0.58},
      {"measurement": "ratio of initial velocity of peptide phosphorylation", "setting": "SNU484 lysate, STAT2_683_695_Y690", "value": 0.73},
      {"measurement": "ratio of initial velocity of peptide phosphorylation", "setting": "SNU484 lysate, SYN1_2_14_S9", "value": 0.67},
      {"measurement": "ratio of initial velocity of peptide phosphorylation", "setting": "SNU484 lysate, TYRO3_679_691_Y686", "value": 0.85}
    ]}
  ]
}
